Data on 10 compounds can be found in patent publication US9120775B2, “Viral polymerase inhibitors” (Biota Scientific Management Pty Ltd, priority 2012, dated 2015).

pEC50, pIC50: −log10 of the molar value. In brackets after ≈: the same amount, converted by molar mass. Where two headings read alike, the source gives them in different places.

Data set [1] addresses T1, 1b (BK) NS5BΔ21 (Hepatitis C virus genotype 1b, UniProt P26663).
T1 construct: 100 nM 1b (BK) NS5BΔ21
In words: HCV polymerase inhibition assay. It counts as biochemical. As to the method: HCV polymerase reactions were carried out using a modified method of Howe et al., Antimicrobial Agents and Chemotherapy 2004 48(12): 4813-4821. Reactions contained a final concentration of, 0.5% DMSO, 100 nM 1b (BK) NS5BΔ21, 20 mM Tris-HCl pH 7.5, 5 mM MgCl2, 5 mM MnCl2, 3 mM DTT, 0.05% BSA, 0.2 U/μL RNasin, 10 μg/mL Poly(rC) template, GTP (at Km) and 0.05 μCi/μL ^33P-GTP in a total reaction volume of 50 μL. Compounds were tested in a three fold dilution series, for example starting from 50 μM. Reactions were initiated with the addition of GTP and terminated after […] with 50 μL ice cold 0.2 M EDTA. Terminated reactions were transferred to DEAE 96-well filter plates, unincorporated nucleotides washed from the filters and 50 μL scintillation fluid added prior to reading on a scintillation counter. The compound concentration that reduced ^33P-GTP incorporation by 50% (IC50) was calculated using non-linear regression.

In data set [2] the test system is genotype 1b (Con 1) subgenomic replicon cell line. In words: HCV replicon assay, genotype 1b, Renilla luciferase reporter. The format is cell-based. The note with it: Hepatitis C virus; 72 hours incubation, Renilla luciferase activity. On the procedure: A genotype 1b (Con 1) subgenomic replicon cell line based on Blight et al., Science 2000 290: 1972-1974, modified to express a Renilla luciferase reporter gene was used to assess antiviral activity of test compounds. Cell cultures were maintained in a sub-confluent state in DMEM with glutamine, 10% heat-inactivated foetal bovine serum (FBS) and G418 (Geneticin®).
For assay, cells were seeded at a density of 7000 cells/well into 96 well tissue culture trays in culture media lacking G418. Compounds were tested in a three fold dilution series, for example starting from 50 uM. After 72 hours incubation at 37° C. and 5% CO2, Renilla luciferase activity was quantified via the Promega Renilla Luciferase or Renilla-Glo™ Luciferase Assay Systems (Promega corporation. The same method was employed for replicon assays using subgenomic genotype 1a (H77) and 2a (JFH-1) replicon cell lines with a seeding cell density of 5000 cells/well for the 2a cell lines.
The compound concentration that reduced luciferase activity by 50% (EC50) was calculated using non-linear regression.
For orientation: Replicon systems follow genome replication, usually without infectious particles.

A short description of data set [3]: Aqueous solubility (laser nephelometry). The settings on record: for solubility at 30 min: aqueous assay buffer pH 6.5 with 1% DMSO, aqueous buffer, kinetic from dmso stock, pH 6.5, 1% DMSO, 30 minute incubation at 25° C. The format is physicochemical. As to the method:
Test compounds prepared in DMSO were screened in duplicate over a range of concentrations (1.6-100 ug/mL) in different aqueous media (for example a pH6.5 buffers which are relevant to the stomach and upper regions of the small intestine and therefore important when predicting the amount of drug likely to be in solution following oral administration). Test compounds were serially diluted in 100% DMSO ranging from 10-0.16 mg/mL. These titrated DMSO stocks were then further diluted 1:100 with assay buffer and added to test plates (UV Star Griener 384 well plates), maintaining the DMSO concentration at 1%.

Setting [4] is: read-out: solubility ranges at pH 6.5.

Usually pIC50 stands for the IC50 on a negative log10 scale, so that one unit is a factor of ten. Lower therefore signals a large IC50. Usually pEC50 stands for the EC50 on a negative log10 scale, so that one unit is a factor of ten. A lower pEC50 goes with a high EC50. By solubility is commonly meant the dissolved amount per volume that the medium holds.

T1 sequence (P26663 2420-2989, stated change not applied): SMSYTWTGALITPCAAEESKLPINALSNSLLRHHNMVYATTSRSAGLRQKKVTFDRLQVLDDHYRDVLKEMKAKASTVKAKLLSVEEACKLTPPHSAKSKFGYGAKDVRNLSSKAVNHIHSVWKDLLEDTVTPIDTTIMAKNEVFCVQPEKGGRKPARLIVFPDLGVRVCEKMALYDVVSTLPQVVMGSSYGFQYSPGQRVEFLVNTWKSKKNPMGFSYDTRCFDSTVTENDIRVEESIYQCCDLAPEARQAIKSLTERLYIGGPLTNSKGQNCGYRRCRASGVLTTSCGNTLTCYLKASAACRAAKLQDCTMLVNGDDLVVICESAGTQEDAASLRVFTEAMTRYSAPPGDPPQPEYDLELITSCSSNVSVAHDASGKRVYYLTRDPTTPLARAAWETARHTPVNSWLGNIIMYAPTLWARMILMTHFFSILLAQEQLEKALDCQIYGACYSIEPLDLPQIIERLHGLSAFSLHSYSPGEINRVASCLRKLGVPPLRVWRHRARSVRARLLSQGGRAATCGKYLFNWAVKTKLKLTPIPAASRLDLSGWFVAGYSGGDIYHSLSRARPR

In turn, `CNC(=O)c1c2cc(C3CC3)c(N(CC[C@@H]3CO[C@H]3C)S(C)(=O)=O)cc2nn1-c1ccc(Cl)cc1` (single isomer, unassigned) [Compound 32] showed a pIC50 in data set [1] of 6.31 to 7.00. Further, the pEC50 in data set [2] is over 7.00. In addition, in data set [3] (setting [4]), the solubility at 30 min is 25 to 50 µg/mL (≈ 48.4 to 96.7 µM).
Taken in the same sequence, the figures for `CNC(=O)c1c2cc(C3CC3)c(N(CC[C@H]3CO[C@@H]3C)S(C)(=O)=O)cc2nn1-c1ccc(Cl)cc1` (single isomer, unassigned) [Compound 33] were 6.31 to 7.00, over 7.00 and 50 to 100 µg/mL (≈ 96.7 to 193 µM).
Consider `CNC(=O)c1c2cc(C3CC3)c(N(CCC3COC3)S(C)(=O)=O)cc2nn1-c1ccc(C)cc1` [Compound 3, 5-Cyclopropyl-N-methyl-2-(4-methylphenyl)-6-{(methylsulfonyl)[2-(oxetan-3-yl)ethyl]amino}-2H-indazole-3-carboxamide], for which the pIC50 in data set [1] is over 7.00. The compound further showed a pEC50 in data set [2] of over 7.00. Besides, the solubility at 30 min in data set [3] (setting [4]) fell in the range of 12.5 to 25 µg/mL (≈ 25.9 to 51.8 µM).
Consider `CNC(=O)c1c2cc(C3CC3)c(N(CCC3CN(C(C)=O)C3)S(C)(=O)=O)cc2nn1-c1ccc(Cl)cc1` [Compound 8, 6-{[2-(1-acetylazetidin-3-yl)ethyl](methylsulfonyl)amino}-2-(4-chlorophenyl)-5-cyclopropyl-N-methyl-2H-indazole-3-carboxamide], for which the pIC50 in data set [1] is 6.31 to 7.00. In addition, the pEC50 in data set [2] is over 7.00. Also, the solubility at 30 min in data set [3] (setting [4]) was 25 to 50 µg/mL (≈ 45.9 to 91.9 µM).
The compound `CNC(=O)c1c2cc(C3CC3)c(N(CC3COC3)S(C)(=O)=O)cc2nn1-c1ccc(Cl)cc1` [Compound 14, 2-(4-chlorophenyl)-5-cyclopropyl-N-methyl-6-[(methylsulfonyl)(oxetan-3-ylmethyl)amino]-2H-indazole-3-carboxamide] had a pIC50 in data set [1] of 6.31 to 7.00. In data set [2], this compound gave a pEC50 of over 7.00. Further, the solubility at 30 min in data set [3] (read-out: Solubility at pH 6.5) lay in the range of 25 to 50 µg/mL (≈ 51.1 to 102 µM). The “solubility at pH 6.5 (in words)” value in data set [3] (pH 6.5, good solubility when the value is >25 ug/mL) is on record as “good solubility”.
The compound `CNC(=O)c1c2cc(C3CC3)c(N(CCC3OCC3C)S(C)(=O)=O)cc2nn1-c1ccc(Cl)cc1` (centres unmarked) [Compound 17, 3,5-anhydro-1-{[2-(4-chlorophenyl)-5-cyclopropyl-3-(methylcarbamoyl)-2H-indazol-6-yl](methylsulfonyl)amino}-1,2,4-trideoxy-4-methylpentitol] gave a negative-log IC50 (pIC50) in data set [1] of 6.31 to 7.00. Besides, the pEC50 in data set [2] is 6.31 to 7.00. The solubility at 30 min in data set [3] (setting [4]) was in the range of 50 to 100 µg/mL (≈ 96.7 to 193 µM).
`CNC(=O)c1c2cc(C3CC3)c(N(CC(F)C3COC3)S(C)(=O)=O)cc2nn1-c1ccc(Cl)cc1` (centres unmarked) [Compound 18, 2-(4-chlorophenyl)-5-cyclopropyl-6-{[2-fluoro-2-(oxetan-3-yl)ethyl](methylsulfonyl)amino}-N-methyl-2H-indazole-3-carboxamide]: the pIC50 in data set [1] was over 7.00. The same compound gave a pEC50 in data set [2] of 6.31 to 7.00. For the same compound, the solubility at 30 min in data set [3] (setting [4]) lay in the range of 50 to 100 µg/mL (≈ 96 to 192 µM).
For `CNC(=O)c1c2cc(C3CC3)c(N(CCC3(F)COC3)S(C)(=O)=O)cc2nn1-c1ccc(Cl)cc1` [Compound 26, 2-(4-chlorophenyl)-5-cyclopropyl-6-[2-(3-fluorooxetan-3-yl)ethyl-methylsulfonyl-amino]-N-methyl-indazole-3-carboxamide], in that order: over 7.00, over 7.00 and 25 to 50 µg/mL (≈ 48 to 96 µM).
As to `CNC(=O)c1c2cc(C3CC3)c(N(CCC3(CNC(=O)OC(C)(C)C)COC3)S(C)(=O)=O)cc2nn1-c1ccc(C)cn1` [Compound 35, tert-butyl N-[[3-[2-[[5-cyclopropyl-3-(methylcarbamoyl)-2-(5-methyl-2-pyridyl)indazol-6-yl]-methylsulfonyl-amino]ethyl]oxetan-3-yl]methyl]carbamate], the pEC50 in data set [2] was 5.00 to 6.00. In data set [3] (setting [4]), the solubility at 30 min fell in the range of 12.5 to 25 µg/mL (≈ 20.4 to 40.8 µM).
Taken in the same sequence, the figures for `CNC(=O)c1c2cc(C3CC3)c(N(CCC3(OC)COC3)S(C)(=O)=O)cc2nn1-c1ccc(Cl)cc1` [Compound 36, 2-(4-chlorophenyl)-5-cyclopropyl-6-[2-(3-methoxyoxetan-3-yl)ethyl-methylsulfonyl-amino]-N-methyl-indazole-3-carboxamide] were 6.31 to 7.00 and 50 to 100 µg/mL (≈ 93.8 to 188 µM).
